Among the test systems are SF-268; CCRF-CEM; SK-MEL-2; OVCAR-8; T47D; Malme-3M; Hs-578T; HCT-116; PC-3; NCI-H460; SK-OV-3; RXF 393; HCT-15; MOLT-4; TK-10; UO-31; HOP-92; A498; OVCAR-5; MCF7.
Common to all, as to assay: DTP human tumour cell line panel, 48 h

SMILES strings stand for the structures.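 Briefly, cells in 96-well plates were exposed to five compound concentrations for 48 h, and endpoints were estimated by linear interpolation. At the GI50, growth is halved.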 Active and inactive are the calls of the source. Cut-off read from the data, not from the text of the source: active = GI50 up to about 1.1 µM and inactive = higher.

Take `O=C(O)c1ccccc1-c1ccccc1C(=O)Nc1ccc2c(c1)nc(O)c1ccccc12`: the GI50 in the test with SF-268 was > 100 µM (inactive); with CCRF-CEM, 62.8 µM (inactive); with SK-MEL-2, 87.9 µM (inactive); in the test on OVCAR-8 it was > 100 µM (inactive); with T47D, > 100 µM (inactive); in the test on Malme-3M, > 100 µM (inactive). The GI50 in the test with Hs-578T was 98.4 µM (inactive); in the test with HCT-116 it was > 100 µM (inactive); with PC-3, > 100 µM (inactive); in the test with NCI-H460, > 100 µM (inactive); in the test on SK-OV-3 it was > 100 µM (inactive); in the test with RXF 393 it was > 100 µM (inactive). Also, the concentration for 50% growth inhibition (GI50) in the test on HCT-15 is more than 100 µM; with MOLT-4, 25.8 µM (inactive); in the test with TK-10, > 100 µM (inactive); in the test with UO-31, > 100 µM (inactive); in the test with HOP-92, > 100 µM (inactive); in the test on A498, 34.3 µM (inactive). In addition, the GI50 with OVCAR-5 and in the test with MCF7 was > 100 µM (inactive) in each case.

For `CC1OC(OC2C(O)C(O)C(O)C(O)C2O)C(N)CC1NC(=N)C(=O)O` (stereo not given), the GI50 in the test on SF-268, in the test on CCRF-CEM, in the test on SK-MEL-2, with OVCAR-8, with T47D and in the test with Malme-3M was > 100 µM (inactive) throughout. The GI50 with Hs-578T, in the test with HCT-116, in the test with PC-3, with NCI-H460, in the test on SK-OV-3 and with RXF 393 was > 100 µM (inactive) in each case. The GI50 in the test on HCT-15 was more than 100 µM; in the test with MOLT-4, > 100 µM (inactive); in the test with TK-10 it was > 100 µM (inactive); with UO-31, > 100 µM (inactive); in the test on HOP-92 it was > 100 µM (inactive); in the test with A498, > 100 µM (inactive). Further, the GI50 in the test on OVCAR-5 and in the test with MCF7 was > 100 µM (inactive) in each case.

In the case of `N=C(N)/N=C(\N)Nc1ccc(C(=O)O)cc1`, the GI50 in the test with SF-268, in the test with CCRF-CEM, in the test on SK-MEL-2, in the test with OVCAR-8, with T47D and in the test with Malme-3M was > 100 µM (inactive) throughout. Also, the GI50 with Hs-578T, with HCT-116, with PC-3, with NCI-H460, in the test on SK-OV-3 and with RXF 393 was > 100 µM (inactive) each time. The GI50 was more than 100 µM in the test with HCT-15; > 100 µM (inactive) with MOLT-4; > 100 µM (inactive) in the test with TK-10; > 100 µM (inactive) in the test on UO-31; > 100 µM (inactive) in the test with HOP-92; > 100 µM (inactive) with A498. The GI50 in the test on OVCAR-5 and in the test with MCF7 was > 100 µM (inactive) in each case.

`O=C(Cc1nc2ncccc2[nH]c1=O)c1c[nH]c2ccccc12`: the GI50 in the test with SF-268 is 14.9 µM (inactive); in the test on CCRF-CEM, 13.4 µM (inactive); in the test on SK-MEL-2 it was 14.9 µM (inactive); with OVCAR-8, 23.4 µM (inactive); with T47D, 17.6 µM (inactive); with Malme-3M, 17.6 µM (inactive). Also, the GI50 in the test on Hs-578T is 18.6 µM (inactive); in the test with HCT-116, 22.2 µM (inactive); in the test with PC-3, 16 µM (inactive); in the test on NCI-H460, 17.3 µM (inactive); in the test on SK-OV-3, 16.3 µM (inactive); in the test on RXF 393 it was 22 µM (inactive). The GI50 is 31.6 µM with HCT-15; 26.4 µM (inactive) with MOLT-4; 16.7 µM (inactive) in the test on TK-10; 17.7 µM (inactive) in the test on UO-31; 17.7 µM (inactive) in the test on HOP-92; 17.7 µM (inactive) in the test on A498. Besides, the GI50 in the test with OVCAR-5 was 24.2 µM (inactive); in the test on MCF7, 16.9 µM (inactive).

As for `CCC1(C)NC(c2cnccn2)=NN1c1ccc(Cl)cc1` (stereo not given), the GI50 in the test on SF-268 was > 100 µM (inactive); in the test with CCRF-CEM it was 18.7 µM (inactive); in the test with SK-MEL-2, > 100 µM (inactive); with OVCAR-8, > 100 µM (inactive); in the test with T47D, 15.5 µM (inactive); with Malme-3M, 41.9 µM (inactive). The GI50 in the test with Hs-578T was > 100 µM (inactive); in the test on HCT-116, 66.8 µM (inactive); with PC-3, 65.9 µM (inactive); in the test with NCI-H460, 81.7 µM (inactive); with SK-OV-3, > 100 µM (inactive); in the test on RXF 393, 41.7 µM (inactive). For the same compound, the GI50 in the test on HCT-15 is more than 100 µM; in the test on MOLT-4, 32.7 µM (inactive); with TK-10, 70.3 µM (inactive); with UO-31 it was > 100 µM (inactive); in the test on HOP-92, > 100 µM (inactive); in the test with A498, > 100 µM (inactive). For the same compound, the values for the GI50 in the test on OVCAR-5 and in the test with MCF7 were > 100 µM (inactive) and 45.4 µM (inactive), respectively.

Consider `O=C1CSC(c2ccccc2)N1c1ccc(-n2c(-c3ccccc3)nc3ccccc3c2=O)cc1` (stereo not given), for which the GI50 with SF-268 is 96.8 µM (inactive); in the test on CCRF-CEM, 36.3 µM (inactive); with SK-MEL-2 it was > 100 µM (inactive); in the test with OVCAR-8, 61.7 µM (inactive); with T47D, 34.8 µM (inactive); in the test on Malme-3M it was > 92.5 µM (inactive). Also, the GI50 in the test on Hs-578T was > 83.8 µM (inactive); with HCT-116, 39.2 µM (inactive); with PC-3 it was 33.9 µM (inactive); with NCI-H460 it was 46.3 µM (inactive); in the test with SK-OV-3, > 100 µM (inactive); in the test on RXF 393, > 100 µM (inactive). Further, the GI50 with HCT-15 was 46.9 µM; in the test on MOLT-4, 28.1 µM (inactive); with TK-10 it was > 100 µM (inactive); in the test on UO-31, 28.4 µM (inactive); with HOP-92 it was > 61.1 µM (inactive); with A498 it was > 100 µM (inactive). The GI50 in the test on OVCAR-5 is > 100 µM (inactive); in the test with MCF7, > 92 µM (inactive).

For `Cc1nc2n(c1/C=C1/C(=O)Nc3ccccc31)CCS2`, the GI50 with SF-268 was 81.8 µM (inactive); in the test on CCRF-CEM, 47.1 µM (inactive); in the test with SK-MEL-2, 5.74 µM (inactive); with OVCAR-8, 79.6 µM (inactive); with T47D, 25.8 µM (inactive); in the test on Malme-3M it was 56 µM (inactive). For the same compound, the GI50 was 39.5 µM (inactive) in the test with Hs-578T; 33.6 µM (inactive) with HCT-116; 26.5 µM (inactive) with PC-3; 35.7 µM (inactive) with NCI-H460; 68.2 µM (inactive) in the test on SK-OV-3; 18.7 µM (inactive) with RXF 393. The GI50 with HCT-15 was 34.2 µM; in the test with MOLT-4, 30.9 µM (inactive); in the test with TK-10, 31.6 µM (inactive); with UO-31 it was 27.5 µM (inactive); in the test with HOP-92 it was > 100 µM (inactive); with A498, 31.2 µM (inactive). The GI50 is > 100 µM (inactive) in the test on OVCAR-5 and 24.3 µM (inactive) with MCF7.

With `C[n+]1[n-]o/c(=N\N=O)c1-c1cc(-c2/c(=N/N=O)o[n-][n+]2C)cc(-c2/c(=N\N=O)o[n-][n+]2C)c1`, the GI50 in the test on SF-268, in the test with CCRF-CEM, with SK-MEL-2, in the test with OVCAR-8, in the test with T47D and in the test on Malme-3M was > 100 µM (inactive) each time. The GI50 in the test on Hs-578T, in the test with HCT-116, in the test on PC-3, in the test with NCI-H460, with SK-OV-3 and in the test with RXF 393 was > 100 µM (inactive) each time. Besides, the GI50 with HCT-15 was more than 100 µM; in the test with MOLT-4, > 100 µM (inactive); in the test on TK-10 it was > 100 µM (inactive); with UO-31, > 100 µM (inactive); in the test on HOP-92, > 100 µM (inactive); in the test on A498, > 100 µM (inactive). The GI50 in the test with OVCAR-5 and in the test on MCF7 was > 100 µM (inactive) each time.

`COC(=O)c1cc(=O)n(-c2ccc3nn(C)nc3c2)cc1C(=O)OC`: the GI50 in the test on SF-268, in the test on CCRF-CEM, in the test with SK-MEL-2, in the test on OVCAR-8, in the test with T47D and in the test on Malme-3M was > 100 µM (inactive) throughout. For the same compound, the GI50 in the test with Hs-578T, with HCT-116, with PC-3, with NCI-H460, in the test with SK-OV-3 and in the test on RXF 393 was > 100 µM (inactive) throughout. The GI50 is more than 100 µM in the test on HCT-15; > 100 µM (inactive) with MOLT-4; > 100 µM (inactive) in the test on TK-10; > 100 µM (inactive) with UO-31; > 100 µM (inactive) in the test with HOP-92; > 100 µM (inactive) in the test with A498. The GI50 in the test with OVCAR-5 and in the test with MCF7 was > 100 µM (inactive) each time.

Consider `CCCCCCCCCCCCCCCC(=O)OCC1OC(n2ccc(N)nc2=O)C(O)C1O` (stereo not given), for which the GI50 is 12.1 µM (inactive) with SF-268; 0.0106 µM (active) in the test with CCRF-CEM; > 100 µM (inactive) in the test on SK-MEL-2; 2.39 µM (inactive) in the test with OVCAR-8; > 100 µM (inactive) in the test on T47D; 5.28 µM (inactive) in the test with Malme-3M. Further, the GI50 in the test on Hs-578T was > 100 µM (inactive); in the test with HCT-116, 2.22 µM (inactive); with PC-3, > 100 µM (inactive); in the test on NCI-H460 it was 0.401 µM (active); with SK-OV-3, 15.5 µM (inactive); with RXF 393, > 85.3 µM (inactive). Further, the GI50 is more than 42.2 µM in the test on HCT-15; 0.0274 µM (active) with MOLT-4; > 96.4 µM (inactive) in the test with TK-10; 1.67 µM (inactive) in the test with UO-31; > 28.8 µM (inactive) in the test on HOP-92; 4.49 µM (inactive) in the test with A498. For the same compound, the GI50 was > 38 µM (inactive) in the test on OVCAR-5 and 1.06 µM (active) in the test with MCF7.

These data come from ChEMBL document CHEMBL1201862, “PubChem BioAssay data set” (2004).
